# Tests used:
# [1] = Tolerance / cytotoxicity of compounds in U2OS cells; format: cell-based; details: human, u2os cells, 8 h assay, read-out: concentration above which cytotoxic
# Description: U2OS cells were treated with HU and the formation of mUb-FANCD2 in the presence of CU 1, CU2, and CU9 was evaluated relative to a DMSO control. Following a 1-h preincubation with the compounds, cells were treated with 2.5 mM of HU for 24 h. […] Accordingly, cells were treated with a higher concentration of compounds in further experiments.
# [2] = test system: UBE2T; assay: Binding to UBE2T by differential scanning fluorimetry, ligand-observed NMR, native mass spectrometry; details: native mass spectrometry (unpublished data)
# [3] = test system: T1, UBE2D1; assay: Gel-based ubiquitylation assay (UBE2D1/GST-FANCLRING), ubiquitylated UBE2D1 species; format: biochemical; details: E2 = UBE2D1, E3 = GST-FANCLRING; 30 min at 37 °C
# T1 construct: His6 (N); made in house; host or cells: E. coli Rosetta (DE3)
# Description: Figure 2 Gel-based ubiquitylation assays with confirmed HTRF hits. […] Western blots (WB) probed for GST or biotin as labeled. Reactions contained 20 nM His6-UBE1, 50 nM E2, 250 nM GST-E3, 500 nM biotinylated ubiquitin: (a) E2 = UBE2T, E3 = GST-FANCLRING, 30 min of reaction at 37 °C; (b) E2 = UBE2D1, E3 = GST-FANCLRING, 30 min of reaction at 37 °C; and (c) E2 = UBE2D1, E3 = GST-RNF8, 10 min of reaction at 37 °C.
# In order to explore the selectivity of CU1, CU2, CU9, CU10, and CU12, we conducted a counter-screen against other E2 and E3 combinations. Since members of the UBE2D family of E2s are known to ubiquitylate multiple substrates in vitro,[13] a ubiquitylation assay featuring UBE2D1 and GST-FANCLRING was performed. With UBE2D1, multiple ubiquitylated GST-FANCLRING species could be observed (Figure 2b).
# Purified protein was concentrated using a Vivaspin-6 concentrator with a 10 kDa MW cut-off (Vivascience) and flash-frozen in small aliquots for storage at […]
# Cy5 labelling of ubiquitin. […]
# Homogeneous Time-Resolved Fluorescence (HTRF) Assay. […]
# (v/v) DMSO. […] Signal was measured at λEx 340 nm and λEm 665 nm and 620 nm using a PHERAstar FS plate reader
# (BMG Labtech). A ratio was calculated as [λEm(665)/λEm(620)] × 104 for each well and this was used to determine the percent inhibition for test compounds. […]
smiles,measurement,setting,value
NCCN1C(=O)CC[C@H]2CN(Cc3cccc(-c4ccco4)c3)CC[C@H]21 [CU1],MCC at 8 h,[1],> 300 µM
CCN1CCN(c2cc(C)nc3nc(CN4CCCCC4C)nn23)CC1 (stereo not drawn) [CU2],binding to UBE2T,[2],did not observe binding
NC(=O)[C@@H]1CCCN1C(=O)c1cc(-n2cccc2)ccc1Cl [CU12],formation of ubiquitylated UBE2D1 species,[3],prevented the formation of any ubiquitylated UBE2D1 species

# From paper PMC6804243, “Small-Molecule Inhibition of UBE2T/FANCL-Mediated Ubiquitylation in the Fanconi Anemia Pathway” (ACS Chemical Biology, 2019)
